Experiment [1] relates to pancreatic islets. The experiment is described as follows: Three-dimensional imaging (PET) of a mouse. The settings on record: 104 μCi intravenously, ddy mouse, image 10 minutes after administration, FIG. 3. Type of experiment: in vivo. As for the experimental part: The molecular probe (compound (6)) was used to perform three-dimensional imaging of a mouse. The molecular probe (104 μCi) was administered intravenously to a 6-week-old ddy mouse (which was male and weighted 25 g) under anesthesia. Then, the three-dimensional imaging was performed with the following PET apparatus and conditions.
Imaging apparatus: eXplore Vista (product name, manufactured by General Electric Company)
Imaging method: Static Scan
Reconstruction: 2DOSEM (Dynamic OS-EM)
The image in FIG. 3 was taken 10 minutes after the administration of the molecular probe (integrating time: 10 minutes). In FIG. 3, the portion indicated by the white circle is near the pancreas.

Experiment [2] addresses T1, SU receptor (Mus musculus, UniProt B2RUS7).
T1 construct: the pancreatic islets isolated from the mice were dispersed into single cells; from tissue; host or cells: single cells dispersed from isolated mouse pancreatic islets
The experiment can be described thus: SU receptor binding experiment ([3H]-glibenclamide displacement on dispersed pancreatic islet cells). The arrangement: species or system mice. The method, then: Next, the pancreatic islets isolated from the mice were dispersed into single cells to prepare 1.7×10^5 cells/sample. A solution containing [^3H]-glibendamide; which was obtained by labeling glibenclamide (4-[2-(5-Chloro-2-methoxybenzoylammo)ethyl]-N-(cyclohexylcarbamoyl)benzenesulfon amide, serving as an SU agent) with ^3H, was added to these cells so that the final concentration of the [^3H]-glibenclamide was 1.85 pmol/L. Subsequently, a reagent containing the compound (7) was added (final concentration of the compound (7): 1×10^−4 to 1×10^−12 M), and incubation was performed at room temperature for 1 hour. The reaction was stopped by filtration, and the radioactivity was measured with a liquid scintillation analyzer.
Therefore, the molecular probe expressed as the formula (7) might have a SUR1 binding site.

The target of experiment [3] is SUR1 (Homo sapiens, UniProt Q09428). The settings on record: compared with nateglinide; cited from earlier work.
SUR1, sequence (Q09428 whole entry, species assumed): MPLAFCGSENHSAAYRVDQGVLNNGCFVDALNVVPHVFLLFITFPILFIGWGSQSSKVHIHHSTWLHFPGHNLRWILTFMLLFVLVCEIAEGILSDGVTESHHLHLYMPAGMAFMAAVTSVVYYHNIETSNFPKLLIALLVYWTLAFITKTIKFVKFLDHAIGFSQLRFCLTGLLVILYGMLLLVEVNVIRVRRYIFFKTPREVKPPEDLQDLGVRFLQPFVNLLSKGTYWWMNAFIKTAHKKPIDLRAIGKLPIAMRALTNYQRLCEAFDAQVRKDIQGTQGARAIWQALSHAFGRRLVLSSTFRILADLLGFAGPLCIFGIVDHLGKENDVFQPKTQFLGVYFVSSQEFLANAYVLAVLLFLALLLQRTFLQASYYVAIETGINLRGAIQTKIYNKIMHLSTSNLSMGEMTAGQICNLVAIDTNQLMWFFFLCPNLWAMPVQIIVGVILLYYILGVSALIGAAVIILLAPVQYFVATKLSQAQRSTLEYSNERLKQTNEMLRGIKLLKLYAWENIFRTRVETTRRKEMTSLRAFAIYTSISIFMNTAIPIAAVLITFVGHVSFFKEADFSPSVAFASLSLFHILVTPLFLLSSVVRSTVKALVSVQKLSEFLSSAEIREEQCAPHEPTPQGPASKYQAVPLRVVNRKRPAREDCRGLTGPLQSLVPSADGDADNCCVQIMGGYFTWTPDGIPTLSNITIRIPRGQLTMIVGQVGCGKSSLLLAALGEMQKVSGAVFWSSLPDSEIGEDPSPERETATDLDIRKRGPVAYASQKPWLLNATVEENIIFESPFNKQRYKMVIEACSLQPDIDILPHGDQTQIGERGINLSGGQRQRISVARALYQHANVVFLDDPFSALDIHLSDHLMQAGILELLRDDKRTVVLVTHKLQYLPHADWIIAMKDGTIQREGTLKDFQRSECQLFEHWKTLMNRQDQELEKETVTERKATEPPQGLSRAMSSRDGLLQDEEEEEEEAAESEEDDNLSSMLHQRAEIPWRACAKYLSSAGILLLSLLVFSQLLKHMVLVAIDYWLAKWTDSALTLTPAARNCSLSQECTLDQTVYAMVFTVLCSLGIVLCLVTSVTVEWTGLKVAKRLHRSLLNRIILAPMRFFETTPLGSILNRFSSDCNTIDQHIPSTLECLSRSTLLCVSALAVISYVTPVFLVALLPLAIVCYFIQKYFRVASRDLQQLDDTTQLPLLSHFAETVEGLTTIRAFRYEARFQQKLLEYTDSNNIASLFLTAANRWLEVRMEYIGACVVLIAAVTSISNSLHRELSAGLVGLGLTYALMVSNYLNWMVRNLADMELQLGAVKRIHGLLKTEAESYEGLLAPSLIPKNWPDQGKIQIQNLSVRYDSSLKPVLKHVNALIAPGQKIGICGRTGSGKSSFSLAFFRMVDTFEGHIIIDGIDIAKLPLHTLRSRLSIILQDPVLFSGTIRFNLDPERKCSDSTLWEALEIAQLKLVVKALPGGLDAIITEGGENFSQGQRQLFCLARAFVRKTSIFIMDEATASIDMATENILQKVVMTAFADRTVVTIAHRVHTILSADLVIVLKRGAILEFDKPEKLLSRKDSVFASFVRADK
SUR1, sequence (Q14654 whole entry partner, species assumed): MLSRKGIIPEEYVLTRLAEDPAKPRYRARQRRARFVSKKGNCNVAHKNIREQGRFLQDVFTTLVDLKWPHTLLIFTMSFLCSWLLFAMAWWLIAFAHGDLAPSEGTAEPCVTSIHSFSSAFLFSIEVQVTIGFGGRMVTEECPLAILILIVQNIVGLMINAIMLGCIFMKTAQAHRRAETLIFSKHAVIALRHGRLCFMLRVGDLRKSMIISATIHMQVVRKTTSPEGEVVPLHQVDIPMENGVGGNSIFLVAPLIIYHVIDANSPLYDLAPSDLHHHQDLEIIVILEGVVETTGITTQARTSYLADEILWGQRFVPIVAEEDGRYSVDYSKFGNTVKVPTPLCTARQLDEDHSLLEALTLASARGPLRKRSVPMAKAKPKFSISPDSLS

For orientation: EC50 means the concentration at which the effect is half-maximal. The low end stands for higher potency in that assay, the high end for lower potency in that assay.

T1 sequence (B2RUS7 1-1588): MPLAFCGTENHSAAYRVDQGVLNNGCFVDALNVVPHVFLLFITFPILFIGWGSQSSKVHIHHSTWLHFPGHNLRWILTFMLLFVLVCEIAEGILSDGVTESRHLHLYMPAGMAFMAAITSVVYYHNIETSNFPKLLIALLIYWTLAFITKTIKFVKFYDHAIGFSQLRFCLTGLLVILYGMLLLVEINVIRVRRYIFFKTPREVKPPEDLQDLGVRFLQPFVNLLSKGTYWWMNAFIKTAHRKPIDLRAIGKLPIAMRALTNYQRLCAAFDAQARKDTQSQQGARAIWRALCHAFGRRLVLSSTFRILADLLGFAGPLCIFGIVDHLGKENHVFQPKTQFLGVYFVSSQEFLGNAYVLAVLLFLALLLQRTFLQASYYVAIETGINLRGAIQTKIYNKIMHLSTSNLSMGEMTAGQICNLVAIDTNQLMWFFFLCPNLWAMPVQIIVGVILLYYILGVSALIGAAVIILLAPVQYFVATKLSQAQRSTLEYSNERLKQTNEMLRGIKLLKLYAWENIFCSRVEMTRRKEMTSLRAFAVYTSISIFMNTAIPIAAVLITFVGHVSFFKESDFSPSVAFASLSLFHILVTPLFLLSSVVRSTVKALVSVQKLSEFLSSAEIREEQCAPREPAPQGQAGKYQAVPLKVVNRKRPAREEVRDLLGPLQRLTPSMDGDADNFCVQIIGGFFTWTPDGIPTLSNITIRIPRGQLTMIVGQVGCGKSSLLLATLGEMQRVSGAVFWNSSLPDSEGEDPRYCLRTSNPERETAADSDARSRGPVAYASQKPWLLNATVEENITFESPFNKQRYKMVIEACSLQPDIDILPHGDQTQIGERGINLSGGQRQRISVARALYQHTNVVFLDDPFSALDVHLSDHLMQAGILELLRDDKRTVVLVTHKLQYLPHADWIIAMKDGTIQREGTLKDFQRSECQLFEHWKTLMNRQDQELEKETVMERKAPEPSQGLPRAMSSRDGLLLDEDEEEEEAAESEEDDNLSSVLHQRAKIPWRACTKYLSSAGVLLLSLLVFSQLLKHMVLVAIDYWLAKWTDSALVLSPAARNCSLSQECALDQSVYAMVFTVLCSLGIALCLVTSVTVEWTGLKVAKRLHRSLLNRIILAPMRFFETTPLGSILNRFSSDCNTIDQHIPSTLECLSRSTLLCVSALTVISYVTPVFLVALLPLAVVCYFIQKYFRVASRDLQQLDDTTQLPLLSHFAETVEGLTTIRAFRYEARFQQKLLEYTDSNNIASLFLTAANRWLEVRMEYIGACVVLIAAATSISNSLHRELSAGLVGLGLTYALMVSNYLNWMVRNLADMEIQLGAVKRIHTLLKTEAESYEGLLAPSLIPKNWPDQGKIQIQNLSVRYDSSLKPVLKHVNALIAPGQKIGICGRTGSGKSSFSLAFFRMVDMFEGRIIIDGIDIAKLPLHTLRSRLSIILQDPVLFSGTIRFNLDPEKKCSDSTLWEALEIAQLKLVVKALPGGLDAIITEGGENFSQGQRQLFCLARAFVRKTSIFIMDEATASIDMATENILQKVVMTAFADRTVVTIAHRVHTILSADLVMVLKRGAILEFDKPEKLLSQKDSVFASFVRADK
T1 sequence (Q61743 whole entry partner): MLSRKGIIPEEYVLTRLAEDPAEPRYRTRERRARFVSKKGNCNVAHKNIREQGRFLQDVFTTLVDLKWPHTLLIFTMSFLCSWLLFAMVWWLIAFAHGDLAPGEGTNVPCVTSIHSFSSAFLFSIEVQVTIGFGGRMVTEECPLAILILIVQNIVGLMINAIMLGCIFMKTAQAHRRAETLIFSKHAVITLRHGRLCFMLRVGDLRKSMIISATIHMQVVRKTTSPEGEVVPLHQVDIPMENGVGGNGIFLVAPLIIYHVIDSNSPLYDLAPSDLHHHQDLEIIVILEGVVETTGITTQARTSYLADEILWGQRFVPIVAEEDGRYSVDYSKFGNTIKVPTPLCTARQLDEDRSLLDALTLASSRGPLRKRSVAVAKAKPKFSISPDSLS

`O=C(O)C(CC(=O)N1C[C@H]2CCCC[C@H]2C1)Cc1ccc(OCC[18F])cc1` (stereo partly shown) [compound (6)]: the “PET imaging result (distinguishing the pancreas)” value in experiment [1] is “the approximate position of the pancreas could be distinguished noninvasively”.

Consider `O=C(O)[C@H](CC(=O)N1C[C@H]2CCCC[C@H]2C1)Cc1ccc(OCCF)cc1` [compound (7)], for which the “inhibition of the bond between the SU receptor and [3H]-glibenclamide” value in experiment [2] (compound 1×10^−4 to 1×10^−12 M, FIG. 2) is “inhibited the bond between the SU receptor and the [^3H]-glibenclamide in the concentration-dependent manner”. For the same compound, the EC50 in experiment [2] (inhibition of [3H]-glibenclamide (1.85 pmol/L) binding, mouse islet cells 1.7×10^5 cells/sample, room temperature, 1 hour) was determined as 23.5 nM.

Turning to `O=C(O)[C@H](CC(=O)N1C[C@H]2CCCC[C@H]2C1)Cc1ccccc1` [mitiglinide, (+)-monocalcium bis [(2S, 3a, 7a-cis)-α-benzylhexahydro-γ-oxo-2-isoindolinebutyrate]dihydrate], the “selectivity for SUR1 in vitro relative to nateglinide” value in experiment [3] is “about 100 times”.
